Reference: PubChem BioAssay (NCI)
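Exposure lasted 48 hours, with cells grown in 96-well plates and compounds tested at five concentrations. TGI denotes the concentration required for complete inhibition of growth.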 Where a SMILES comes first, the peptide text is derived from it. The star is where a group is joined. Boc = CC(C)(C)OC(=O)*

What was measured:
Test in all cases: DTP human tumour cell line panel, 48 h
[1] = test system: K-562 leukemia
[2] = test system: SK-MEL-5 melanoma
[3] = test system: TK-10 renal
[4] = test system: SK-OV-3 ovarian
[5] = test system: HT29 colon
[6] = test system: HCT-116 colon
[7] = test system: SF-268 CNS
[8] = test system: EKVX NSCLC
[9] = test system: SN12C renal
[10] = test system: OVCAR-4 ovarian

SMILES | TGI [1] [µM] | TGI [2] [µM] | TGI [3] [µM] | TGI [4] [µM] | TGI [5] [µM] | TGI [6] [µM] | TGI [7] [µM] | TGI [8] [µM] | TGI [9] [µM] | TGI [10] [µM]
S=C(c1c[nH]c2ccccc12)N1CCN(c2ccccc2)CC1 | > 100 | > 100 | > 100 | > 100 | > 100 | > 100 | > 100 | > 100 | 59.9 | –
CC1(C)C[C@H](O)[C@H](O)[C@]23C(=O)O[C@H](O)[C@H]2C(C=O)=CC[C@@H]13 | > 100 | > 100 | > 100 | – | > 100 | > 100 | > 100 | > 100 | > 100 | –
N#C[C@@]12CCCC(=O)[C@@H]1[C@H]1CCC[C@H]12 | 37.7 | 30.8 | 35.3 | 32.8 | 52.4 | 30.8 | – | 28.6 | 35.1 | 58.6
CC[C@@]1(O)C(=O)OCc2c1cc1n(c2=O)Cc2c-1nc1ccccc1c2/C=N\NC(=O)C(N)Cc1cnc[nH]1 (some centres not stated) | > 100 | 1.03 | > 100 | > 100 | > 57.3 | > 41.4 | > 25.8 | > 100 | > 73 | > 100
CCOCC(NC(=O)C(CC(C)C)NC(=O)OC(C)(C)C)C(N)=O (stereo not drawn) (Boc-Leu-Ser(Et)-NH2; configuration not given here) | – | > 100 | > 100 | > 100 | > 100 | > 100 | > 100 | > 100 | > 100 | > 100
CC(=O)c1c(-c2ccccc2)c(-c2ccc(OCCN(C)C)cc2)n2ccccc12 | > 100 | 24.1 | 32.1 | 38.2 | 13.6 | 26 | 33.1 | 43.8 | 29.4 | > 100
CC(C)(C)OC(=O)Nc1cc(-c2ccccc2)co1 | > 100 | > 100 | > 100 | > 100 | – | > 100 | 94.4 | > 100 | > 100 | > 100
CN[C@@H](C)[C@H](OP(=O)(O)OC1[C@@H](O)[C@H](O)C(O)[C@H](O)[C@@H]1O)c1ccccc1 (some centres not stated) | – | > 100 | > 100 | > 100 | > 100 | > 100 | > 100 | > 100 | > 100 | > 100
O=C(N/N=C\c1ccc([N+](=O)[O-])cc1)c1ccccc1Nc1ccccc1C(=O)N/N=C/c1ccc([N+](=O)[O-])cc1 | > 100 | > 100 | > 100 | > 100 | > 100 | > 100 | > 100 | > 100 | > 100 | > 100
Cc1ccc(S(=O)(=O)/N=C(\[O-])C2=C(c3ccccc3)NN(C)c3nc4cccc[n+]4nc32)cc1 | > 100 | > 100 | > 100 | – | > 100 | > 100 | > 100 | > 100 | > 100 | > 100
CC(C)(C)OC(=O)NC(Cc1ccc(OCc2ccccc2)cn1)C(=O)N1CCSCC1 (configuration not stated) | > 100 | 29.9 | > 100 | > 100 | > 100 | > 100 | > 100 | > 100 | > 100 | –
CCCC#CC(O)(C(=O)OC1CCN(C)CC1)C1CCCCC1 (configuration not stated) | > 100 | > 100 | > 100 | > 100 | > 100 | > 100 | > 100 | > 100 | > 100 | > 100
O=C1/C(=C/c2cccs2)NC(=S)N1CN1CCOCC1 | > 100 | > 100 | > 100 | > 100 | > 100 | > 100 | > 100 | > 100 | > 100 | –
NC12CC3CC4C1CC1CC2C(C3)C4(N)C1 | > 100 | > 100 | > 100 | > 100 | > 100 | > 100 | > 100 | > 100 | > 100 | > 100
COc1ccc(N=C2C(=Nc3ccc(OC)cc3)N(S(=O)(=O)c3ccccc3)C(=S)N2c2ccc(OC)cc2)cc1 | > 100 | > 100 | > 100 | > 100 | – | > 100 | > 100 | > 100 | > 100 | –
CN(C)CCNC1=CC(=O)c2c(O)ccc(O)c2C1=O | > 100 | 3.28 | 28 | 83.1 | 8.75 | 9.05 | 28.1 | 25.6 | 21.5 | 15.7
Cc1ccc(Nc2sc(C)cc2C#N)c([N+](=O)[O-])c1 | > 100 | – | – | > 100 | – | > 100 | > 100 | > 100 | > 100 | > 100
CC12CC3(O)OC(O1)C1(COC(=O)c4ccccc4)C3CC21OC1OC(CO)C(O)C(O)C1O (configuration not stated) | – | > 100 | > 100 | > 100 | > 100 | > 100 | > 100 | > 100 | > 100 | > 100
CCOC(=O)c1cc(=O)oc2c1N(C)c1ncccc1N2 | > 100 | – | > 100 | > 100 | – | > 100 | > 100 | – | > 100 | > 100
CC(=O)NNC(=S)/N=C/c1c(O)cc(C)oc1=O | – | > 100 | > 100 | > 100 | > 100 | > 100 | – | > 100 | > 100 | > 100
COc1ccc2c(c1)CCCN1CCc3cc(OC)c(OC)cc3C21 (configuration not stated) | > 100 | > 100 | > 100 | > 100 | > 100 | > 100 | > 100 | > 100 | > 100 | –
Cn1c2ccccc2n2c(=O)c3cccnc3c(C#N)c12 | – | > 100 | > 100 | > 100 | > 100 | > 100 | > 100 | > 100 | > 100 | > 100
